Data taken from the CheMixHub viscosity set.

Test: xn = mol fraction of the nth substance listed

CCNCC + CCCCOCCOCCO
viscosity [mPa·s], 100 kPa
Settings	298.15 K	303.15 K	308.15 K
x2 = 0.05043	0.3695	0.3487	0.3286
x2 = 0.09991	0.457	0.4294	0.4036
x2 = 0.1494	0.5594	0.5411	0.4914
x2 = 0.2	0.699	0.6487	0.6022
x2 = 0.3	1.062	0.9662	0.8961
x2 = 0.4001	1.56	1.376	1.288
x2 = 0.5	2.156	1.896	1.722
x2 = 0.6	2.817	2.45	2.215
x2 = 0.6997	3.484	3.007	2.686
x2 = 0.7998	4.107	3.511	3.132
x2 = 0.9	4.667	3.966	3.532
x2 = 0.9491	4.904	4.167	3.705

CCNCC + CCCC(C)O
viscosity [mPa·s], 100 kPa
Settings	293.15 K	298.15 K	303.15 K	308.15 K	313.15 K	318.15 K	323.15 K
x1 = 0.0218	3.75	3.12	2.6	2.18	1.85	1.59	1.37
x1 = 0.081	3.2	2.7	2.28	1.92	1.66	1.44	1.25
x1 = 0.16	2.57	2.207	1.9	1.62	1.42	1.25	1.1
x1 = 0.2399	2.04	1.78	1.555	1.35	1.204	1.07	0.96
x1 = 0.3499	1.5	1.33	1.18	1.05	0.945	0.858	0.78
x1 = 0.44	1.16	1.04	0.94	0.85	0.778	0.71	0.65
x1 = 0.56	0.84	0.76	0.7	0.644	0.592	0.544	0.494
x1 = 0.6501	0.68	0.629	0.577	0.53	0.489	0.446	0.41
x1 = 0.74	0.552	0.506	0.466	0.435	0.4	0.367	0.34
x1 = 0.8497	0.45	0.416	0.387	0.36	0.335	0.311	0.285
x1 = 0.9397	0.368	0.346	0.325	0.304	0.285	0.268	0.25
x2 = 0.0189	0.332	0.316	0.3	0.283	0.268	0.254	0.24

COCCOCCOCCOC + COC(C)=O
viscosity [mPa·s], 101.3 kPa
Settings	298.15 K	308.15 K	318.15 K
x1 = 0.022	0.398	0.352	0.33
x1 = 0.0473	0.424	0.378	0.352
x1 = 0.0717	0.455	0.404	0.373
x1 = 0.1255	0.527	0.465	0.425
x1 = 0.1838	0.61	0.534	0.478
x1 = 0.2145	0.649	0.561	0.512
x1 = 0.236	0.676	0.58	0.528
x1 = 0.2557	0.709	0.616	0.549
x1 = 0.3143	0.802	0.687	0.611
x1 = 0.4027	0.943	0.802	0.699
x1 = 0.4806	1.07	0.905	0.783
x1 = 0.5743	1.234	1.031	0.883
x1 = 0.6289	1.326	1.1	0.942
x1 = 0.6511	1.367	1.13	0.964
x1 = 0.7138	1.474	1.215	1.031
x1 = 0.7667	1.566	1.286	1.086
x1 = 0.7792	1.593	1.308	1.1
x1 = 0.8702	1.743	1.426	1.195
x1 = 0.9014	1.805	1.472	1.225
x1 = 0.9571	1.891	1.548	1.278
x2 = 0.0137	1.936	1.584	1.306

ClCc1ccccc1 + COc1ccccc1
303.15 K, 101 kPa
Settings	viscosity [mPa·s]
x2 = 0.1045	1.245
x2 = 0.1911	1.362
x2 = 0.304	1.438
x2 = 0.4094	1.466
x2 = 0.5182	1.45
x2 = 0.6162	1.394
x2 = 0.7196	1.3
x2 = 0.8053	1.192
x2 = 0.9137	1.061

CCCBr + Cc1ccc(C)cc1
308.15 K, 101 kPa
Settings	viscosity [mPa·s]
x2 = 0.1032	0.4446
x2 = 0.2012	0.4528
x2 = 0.3051	0.4596
x2 = 0.4051	0.469
x2 = 0.503	0.477
x2 = 0.6038	0.4865
x2 = 0.7055	0.4971
x2 = 0.8019	0.5027
x2 = 0.8965	0.5124

C[NH+](CCO)CCO.O=C[O-] + CCCO
viscosity [mPa·s], 101 kPa
Settings	293.15 K	303.15 K	313.15 K	323.15 K
x1 = 0.0561	29.65	17.05	8.082	5.559
x1 = 0.1033	51.95	25.07	13.55	9.307
x1 = 0.1976	99.81	47.76	25.74	17.6
x1 = 0.3071	159.4	78.44	41.48	28.28
x1 = 0.4049	216.8	106.9	57.05	38.83
x1 = 0.5231	293.9	143.5	78.48	53.2
x1 = 0.6246	369.5	179.8	99.71	67.21
x1 = 0.7259	455.1	222.6	123.6	82.66
x1 = 0.8079	531.2	261.8	144.3	95.86
x1 = 0.9055	627	310.4	169	111.4
x1 = 0.9558	671.4	331.9	180.4	118.7

CCCCOC(=O)c1ccccc1 + CCCCCCCCCCCCCC
101 kPa
Settings	viscosity [mPa·s]
298.15 K, x2 = 0.0346	2.623
298.15 K, x2 = 0.0683	2.562
298.15 K, x2 = 0.1072	2.49
298.15 K, x2 = 0.1432	2.436
298.15 K, x2 = 0.1795	2.38
298.15 K, x2 = 0.2175	2.328
298.15 K, x2 = 0.2506	2.282
298.15 K, x2 = 0.2944	2.226
298.15 K, x2 = 0.3362	2.186
298.15 K, x2 = 0.3761	2.154
298.15 K, x2 = 0.4036	2.128
298.15 K, x2 = 0.472	2.08
298.15 K, x2 = 0.5203	2.055
298.15 K, x2 = 0.5754	2.03
298.15 K, x2 = 0.6238	2.015
298.15 K, x2 = 0.6833	1.995
298.15 K, x2 = 0.7394	1.989
298.15 K, x2 = 0.8084	1.99
298.15 K, x2 = 0.8738	2.005
308.15 K, x2 = 0.0474	2.117
308.15 K, x2 = 0.0876	2.049
308.15 K, x2 = 0.1255	1.995
308.15 K, x2 = 0.1576	1.956
308.15 K, x2 = 0.1932	1.916
308.15 K, x2 = 0.2315	1.876
308.15 K, x2 = 0.2692	1.842
308.15 K, x2 = 0.3166	1.806
308.15 K, x2 = 0.3536	1.783
308.15 K, x2 = 0.3967	1.758
308.15 K, x2 = 0.4455	1.735
308.15 K, x2 = 0.4967	1.714
308.15 K, x2 = 0.5574	1.696
308.15 K, x2 = 0.5991	1.684
308.15 K, x2 = 0.6454	1.675
308.15 K, x2 = 0.7094	1.667
308.15 K, x2 = 0.7691	1.664
308.15 K, x2 = 0.8229	1.665
308.15 K, x2 = 0.9132	1.68
318.15 K, x2 = 0.0221	1.779
318.15 K, x2 = 0.0602	1.728
318.15 K, x2 = 0.0938	1.687
318.15 K, x2 = 0.1331	1.646
318.15 K, x2 = 0.1693	1.612
318.15 K, x2 = 0.2101	1.576
318.15 K, x2 = 0.249	1.546
318.15 K, x2 = 0.2933	1.516
318.15 K, x2 = 0.3356	1.491
318.15 K, x2 = 0.3836	1.467
318.15 K, x2 = 0.4273	1.448
318.15 K, x2 = 0.4797	1.428
318.15 K, x2 = 0.5267	1.413
318.15 K, x2 = 0.5825	1.399
318.15 K, x2 = 0.6341	1.388
318.15 K, x2 = 0.6948	1.38
318.15 K, x2 = 0.7506	1.377
318.15 K, x2 = 0.8156	1.375
318.15 K, x2 = 0.8778	1.381

C[NH+](CCO)CCO.O=C[O-] + CCO
viscosity [mPa·s], 101 kPa
Settings	293.15 K	303.15 K	313.15 K	323.15 K
x1 = 0.0643	32.41	17.44	8.445	5.799
x1 = 0.1074	52.86	25.09	13.49	9.254
x1 = 0.2133	106.7	51.03	27.25	18.63
x1 = 0.3117	159.3	78.2	41.19	28.12
x1 = 0.417	218.9	107.6	57.4	39.18
x1 = 0.5197	281.6	137.2	74.93	51.06
x1 = 0.6178	348.2	168.6	93.84	63.73
x1 = 0.7224	434.6	211.7	118.3	79.69
x1 = 0.8275	534.4	263.6	145.7	97.16
x1 = 0.9161	630.3	312.3	170	112.2
x1 = 0.95	665	328.9	178.8	117.6
